Source: publication PMC10672842, “Anti-Trypanosoma cruzi Activity, Mutagenicity, Hepatocytotoxicity and Nitroreductase Enzyme Evaluation of 3-Nitrotriazole, 2-Nitroimidazole and Triazole Derivatives” (Molecules, 2023)
Read-outs that look alike come from different tables or passages of the source.

Assays:
S. typhimurium TA98 = experiment: Salmonella reverse mutation assay (Ames test, preincubation), TA98
Procedure: (§1) The compounds were tested in a reverse mutation assay preincubation protocol in the absence and presence of metabolic activation following standard protocols previously proposed by Maron and Ames. The histidine-dependent (his^−) strains TA98 and TA100 of Salmonella typhimurium were inoculated in 10 mL of Oxoid nutrient broth No. 2 containing 25 µg/mL ampicillin and incubated overnight (15–18 h) at 37 ± 1 °C on an orbital shaker (CT-712, Cientec, Belo Horizonte, MG, Brazil) at 150 rpm, obtaining a concentration of 1–2 × 10^9 cells/mL, confirmed by titration in nutrient agar plates. Briefly, 100 µL of stationary growth cultures of each strain were preincubated for 20 min on an orbital shaker (150 rpm) at 37 ± 1 °C, with 500 µL of 0.2 M phosphate buffer pH 7.4, or 500 µL of S9 mix 4% (Molecular Toxicology, Baltimore, MD, USA), and 100 µL of compound dilutions (0–5000 µM) or controls. DMSO 1% was used as a negative control. […] After incubation, 2 mL of top agar (0.7% agar, 0.5% NaCl, 0.05 mM L-histidine and D-biotin) at 45 ± 3 °C was added and gently mixed. The final mixture was poured on glucose minimal agar plates (1.5% agar, 10 g/L MgSO4·7H2O; 100 g/L of C6H8O7·H2O; 500 g/L K2HPO4; 175 g/L Na(NH4)HPO4·4H2O, 2% glucose) and incubated for 72 h at 37 ± 1 °C. The results were expressed as the mean of revertant colonies (His^+) per plate, standard deviation (SD) and mutagenicity induction fold (IF), calculated as the ratio between the number of colonies in the test group and the number of colonies in the negative control group. Mutagenic potency was calculated as the slope of the linear portion of the concentration–response function and expressed as revertants/µM. All assays were performed in triplicate and repeated at least two times. Statistical analyses were carried out in GraphPad Prism software (version 5.00, GraphPad Software, Boston, MA, USA).

in vitro = format: cell-based; details: human
Procedure: The Lactate Desidrogenase (LDH) Cytotoxicity Detection Kit^PLUS and the Cell Proliferation Reagent WST-1 assays were performed according to the manufacturer’s protocols. The human hepatocellular carcinoma cell line HepG2 was cultured in T25/175 cm^2 flasks with Dulbecco’s modified Eagle’s medium (DMEM, Gibco BRL) supplemented with 10% fetal bovine serum, 3.7 g/L sodium bicarbonate and 100 µg/mL penicillin–streptomycin under standard conditions (37 ± 1 °C, 95% relative humidity and 5% CO2). Cells were split using trypsin-EDTA (0.05%) with phenol red solution (Gibco BRL) and seeded in a 96-well flat-bottomed plate at a density of 1 × 10^4 cells/well. After overnight incubation, the cells were washed with 1X PBS, and the medium was replaced with different compound dilutions (0–5000 µM) in fresh medium (100 µL) followed by 24 h of incubation. DMSO 1% was used as the negative control, and Triton X-100 4% was used as the positive control. For the LDH assay, after treatment, 50 µL of supernatant from each well was transferred to a 96-well flat-bottomed plate, and 50 µL of freshly prepared reaction mixture was added to each well. After 10 min of incubation in the dark at room temperature, 25 µL of stop solution was added to each well, and the absorbance was measured at 492 nm on a microplate reader (Polaris, Celer, MG, Brazil). For the WST-1 assay, after exposure, the supernatant was replaced by 100 µL of WST-1 2% in fresh medium and incubated for 3 h in the dark under standard conditions. The absorbance was measured at 440 nm. […] For cytotoxicity assays, significant differences between the groups were analyzed by one-way ANOVA and Tukey’s post hoc tests (p < 0.01).

S. typhimurium TA100 = system: S. typhimurium TA100
Procedure: as §1

O=[N+]([O-])c1nccn1CC(O)c1ccc(F)cc1F (stereo not shown) [Compound 9, 1-(2,4-Difluorophenyl)-2-(2-nitro-1H-imidazol-1-yl)ethanol]
IF (induction factor) (S. typhimurium TA1535; TA1535, +S9, 0.5 µM): 1.3
revertant His+ colonies, mean ± SD (S. typhimurium TA1535; TA1535, +S9, 0.5 µM): 14 ± 2
IF (induction factor) (S. typhimurium TA1535; TA1535, +S9, 5 µM): 2.1
revertant His+ colonies, mean ± SD (S. typhimurium TA1535; TA1535, +S9, 5 µM): 23 ± 1
IF (induction factor) (S. typhimurium TA1535; TA1535, +S9, 50 µM): 2.2
revertant His+ colonies, mean ± SD (S. typhimurium TA1535; TA1535, +S9, 50 µM): 24 ± 1
revertant His+ colonies, mean ± SD (S. typhimurium TA1535; TA1535, +S9, 500 µM): Cytotoxic
Mutagenicity in the Ames test (verdict) (S. typhimurium TA1535; TA1535, absence or presence of metabolic activation): mutagenic
IF (induction factor) (S. typhimurium TA1535; TA1535, −S9, 0.5 µM): 1.8
revertant His+ colonies, mean ± SD (S. typhimurium TA1535; TA1535, −S9, 0.5 µM): 14 ± 1
IF (induction factor) (S. typhimurium TA1535; TA1535, −S9, 5 µM): 1.8
revertant His+ colonies, mean ± SD (S. typhimurium TA1535; TA1535, −S9, 5 µM): 14 ± 4
IF (induction factor) (S. typhimurium TA1535; TA1535, −S9, 50 µM): 2.8
revertant His+ colonies, mean ± SD (S. typhimurium TA1535; TA1535, −S9, 50 µM): 22 ± 1
IF (induction factor) (S. typhimurium TA1535; TA1535, −S9, 500 µM): 2.0
revertant His+ colonies, mean ± SD (S. typhimurium TA1535; TA1535, −S9, 500 µM): 16 ± 3
revertant His+ colonies, mean ± SD (S. typhimurium TA1535; TA1535, −S9, 5000 µM): Cytotoxic
IF (induction factor) (S. typhimurium TA98; TA98, +S9, 0.5 µM): 0.8
revertant His+ colonies, mean ± SD (S. typhimurium TA98; TA98, +S9, 0.5 µM): 18 ± 2
IF (induction factor) (S. typhimurium TA98; TA98, +S9, 5 µM): 0.8
revertant His+ colonies, mean ± SD (S. typhimurium TA98; TA98, +S9, 5 µM): 18 ± 2
IF (induction factor) (S. typhimurium TA98; TA98, +S9, 50 µM): 0.9
revertant His+ colonies, mean ± SD (S. typhimurium TA98; TA98, +S9, 50 µM): 22 ± 8
IF (induction factor) (S. typhimurium TA98; TA98, +S9, 500 µM): 1.0
revertant His+ colonies, mean ± SD (S. typhimurium TA98; TA98, +S9, 500 µM): 24 ± 5
IF (induction factor) (S. typhimurium TA98; TA98, +S9, 5000 µM): 1.2
revertant His+ colonies, mean ± SD (S. typhimurium TA98; TA98, +S9, 5000 µM): 28 ± 2
IF (induction factor) (S. typhimurium TA98; TA98, −S9, 0.5 µM): 0.7
revertant His+ colonies, mean ± SD (S. typhimurium TA98; TA98, −S9, 0.5 µM): 18 ± 6
IF (induction factor) (S. typhimurium TA98; TA98, −S9, 5 µM): 0.7
revertant His+ colonies, mean ± SD (S. typhimurium TA98; TA98, −S9, 5 µM): 18 ± 2
IF (induction factor) (S. typhimurium TA98; TA98, −S9, 50 µM): 1.1
revertant His+ colonies, mean ± SD (S. typhimurium TA98; TA98, −S9, 50 µM): 29 ± 3
IF (induction factor) (S. typhimurium TA98; TA98, −S9, 500 µM): 1.8
revertant His+ colonies, mean ± SD (S. typhimurium TA98; TA98, −S9, 500 µM): 49 ± 5
IF (induction factor) (S. typhimurium TA98; TA98, −S9, 5000 µM): 6.5
revertant His+ colonies, mean ± SD (S. typhimurium TA98; TA98, −S9, 5000 µM): 173 ± 21
CC50 at 24 h (in vitro): > 500 µM
CC50 at 48 h (in vitro): > 500 µM
CC50 at 72 h (in vitro): > 500 µM
Mutagenic potency (slope of the linear portion of the concentration–response function) (S. typhimurium TA100; TA100, +S9): 292.1 revertants/µM
IF (induction factor) (S. typhimurium TA100; TA100, +S9, 0.5 µM): 1.5
revertant His+ colonies, mean ± SD (S. typhimurium TA100; TA100, +S9, 0.5 µM): 159 ± 7
IF (induction factor) (S. typhimurium TA100; TA100, +S9, 5 µM): 2.1
revertant His+ colonies, mean ± SD (S. typhimurium TA100; TA100, +S9, 5 µM): 218 ± 14
IF (induction factor) (S. typhimurium TA100; TA100, +S9, 50 µM): 2.2
revertant His+ colonies, mean ± SD (S. typhimurium TA100; TA100, +S9, 50 µM): 233 ± 48
IF (induction factor) (S. typhimurium TA100; TA100, +S9, 500 µM): 9.7
revertant His+ colonies, mean ± SD (S. typhimurium TA100; TA100, +S9, 500 µM): 1025 ± 16
IF (induction factor) (S. typhimurium TA100; TA100, +S9, 5000 µM): 11.5
revertant His+ colonies, mean ± SD (S. typhimurium TA100; TA100, +S9, 5000 µM): 1216 ± 113
Mutagenicity in the Ames test (verdict) (S. typhimurium TA100; TA100, absence or presence of metabolic activation): mutagenic
Mutagenic potency (slope of the linear portion of the concentration–response function) (S. typhimurium TA100; TA100, −S9): 250.3 revertants/µM
IF (induction factor) (S. typhimurium TA100; TA100, −S9, 0.5 µM): 1.0
revertant His+ colonies, mean ± SD (S. typhimurium TA100; TA100, −S9, 0.5 µM): 73 ± 5
IF (induction factor) (S. typhimurium TA100; TA100, −S9, 5 µM): 1.2
revertant His+ colonies, mean ± SD (S. typhimurium TA100; TA100, −S9, 5 µM): 88 ± 7
IF (induction factor) (S. typhimurium TA100; TA100, −S9, 50 µM): 2.3
revertant His+ colonies, mean ± SD (S. typhimurium TA100; TA100, −S9, 50 µM): 164 ± 16
IF (induction factor) (S. typhimurium TA100; TA100, −S9, 500 µM): 4.9
revertant His+ colonies, mean ± SD (S. typhimurium TA100; TA100, −S9, 500 µM): 347 ± 24
IF (induction factor) (S. typhimurium TA100; TA100, −S9, 5000 µM): 16.7
revertant His+ colonies, mean ± SD (S. typhimurium TA100; TA100, −S9, 5000 µM): 1195 ± 160
Mutagen classification according to Claxton et al. (S. typhimurium TA100; TA100, −S9 and +S9): highly inductive mutagen
